Results: PubChem BioAssay (NCI)
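1) Cells in 96-well plates. 2) Compound, 48 h, 5 concentrations. 3) Linear interpolation between surrounding doses. 4) Unreached endpoint = highest concentration. GI50: concentration for 50% inhibition of growth. At the TGI there is no net growth.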

Columns and labels:
Assay in all cases: NCI-60 cell line screen, 48 h
786-0 renal = test system: 786-0 renal
A498 renal = test system: A498 renal
A549 NSCLC = test system: A549 NSCLC
ACHN renal = test system: ACHN renal
BT-549 breast = test system: BT-549 breast
CAKI-1 renal = test system: CAKI-1 renal
CCRF-CEM leukemia = test system: CCRF-CEM leukemia
COLO 205 colon = test system: COLO 205 colon
DU-145 prostate = test system: DU-145 prostate
EKVX NSCLC = test system: EKVX NSCLC
HCC-2998 colon = test system: HCC-2998 colon
HCT-116 colon = test system: HCT-116 colon
HCT-15 colon = test system: HCT-15 colon
HL-60(TB) leukemia = test system: HL-60(TB) leukemia
HOP-62 NSCLC = test system: HOP-62 NSCLC
HOP-92 NSCLC = test system: HOP-92 NSCLC
HS 578T breast = test system: HS 578T breast
HT29 colon = test system: HT29 colon
IGROV1 ovarian = test system: IGROV1 ovarian
K-562 leukemia = test system: K-562 leukemia
KM12 colon = test system: KM12 colon
LOX IMVI melanoma = test system: LOX IMVI melanoma
M14 melanoma = test system: M14 melanoma
MALME-3M melanoma = test system: MALME-3M melanoma
MCF7 breast = test system: MCF7 breast
MDA-MB-231 breast = test system: MDA-MB-231 breast
MDA-MB-435 = test system: MDA-MB-435
MOLT-4 leukemia = test system: MOLT-4 leukemia
NCI-H226 lung = test system: NCI-H226 lung
NCI-H23 lung = test system: NCI-H23 lung
NCI-H460 lung = test system: NCI-H460 lung
NCI-H522 lung = test system: NCI-H522 lung
NCI/ADR-RES ovarian = test system: NCI/ADR-RES ovarian
OVCAR-3 ovarian = test system: OVCAR-3 ovarian
OVCAR-4 ovarian = test system: OVCAR-4 ovarian
OVCAR-5 ovarian = test system: OVCAR-5 ovarian
OVCAR-8 ovarian = test system: OVCAR-8 ovarian
PC-3 prostate = test system: PC-3 prostate
RPMI-8226 leukemia = test system: RPMI-8226 leukemia
RXF 393 renal = test system: RXF 393 renal
SF-268 CNS = test system: SF-268 CNS
SF-295 CNS = test system: SF-295 CNS
SF-539 CNS = test system: SF-539 CNS
SK-MEL-2 melanoma = test system: SK-MEL-2 melanoma
SK-MEL-28 melanoma = test system: SK-MEL-28 melanoma
SK-MEL-5 melanoma = test system: SK-MEL-5 melanoma
SK-OV-3 ovarian = test system: SK-OV-3 ovarian
SN12C renal = test system: SN12C renal
SNB-19 CNS = test system: SNB-19 CNS
SNB-75 CNS = test system: SNB-75 CNS
SR leukemia = test system: SR leukemia
SW-620 colon = test system: SW-620 colon
T-47D breast = test system: T-47D breast
TK-10 renal = test system: TK-10 renal
U251 CNS = test system: U251 CNS
UACC-257 melanoma = test system: UACC-257 melanoma
UACC-62 melanoma = test system: UACC-62 melanoma
UO-31 renal = test system: UO-31 renal

O=S(=O)(Nc1ccc(Cl)cc1)c1ccc(-c2cnc(C3CC3)o2)cc1
GI50 (786-0 renal): 1.67 µM
TGI (786-0 renal): 20.2 µM
GI50 (A498 renal): 0.168 µM
TGI (A498 renal): 0.732 µM
GI50 (A549 NSCLC): 1.49 µM
TGI (A549 NSCLC): 22.3 µM
GI50 (ACHN renal): 1.25 µM
TGI (ACHN renal): 18.1 µM
GI50 (BT-549 breast): 0.637 µM
TGI (BT-549 breast): 21.4 µM
GI50 (CAKI-1 renal): 0.586 µM
TGI (CAKI-1 renal): 16.5 µM
GI50 (CCRF-CEM leukemia): 0.564 µM
TGI (CCRF-CEM leukemia): 19.9 µM
GI50 (COLO 205 colon): 1.27 µM
TGI (COLO 205 colon): 10 µM
GI50 (DU-145 prostate): 2.06 µM
TGI (DU-145 prostate): 15.3 µM
GI50 (EKVX NSCLC): 2.13 µM
TGI (EKVX NSCLC): 18.8 µM
GI50 (HCC-2998 colon): 2.02 µM
TGI (HCC-2998 colon): 15.3 µM
GI50 (HCT-116 colon): 0.413 µM
TGI (HCT-116 colon): 15.9 µM
GI50 (HCT-15 colon): 0.368 µM
TGI (HCT-15 colon): 15.1 µM
GI50 (HL-60(TB) leukemia): 0.388 µM
TGI (HL-60(TB) leukemia): 8.58 µM
GI50 (HOP-62 NSCLC): 0.791 µM
TGI (HOP-62 NSCLC): 18.6 µM
GI50 (HOP-92 NSCLC): 1.81 µM
TGI (HOP-92 NSCLC): 18.1 µM
GI50 (HS 578T breast): 0.372 µM
TGI (HS 578T breast): 6.86 µM
GI50 (HT29 colon): 0.414 µM
TGI (HT29 colon): 14.4 µM
GI50 (IGROV1 ovarian): 0.637 µM
TGI (IGROV1 ovarian): 15.2 µM
GI50 (K-562 leukemia): 0.353 µM
TGI (K-562 leukemia): > 75 µM
GI50 (KM12 colon): 0.431 µM
TGI (KM12 colon): 16.2 µM
GI50 (LOX IMVI melanoma): 0.595 µM
TGI (LOX IMVI melanoma): 18.6 µM
GI50 (M14 melanoma): 0.406 µM
TGI (M14 melanoma): 16.9 µM
GI50 (MALME-3M melanoma): 0.743 µM
TGI (MALME-3M melanoma): 20.3 µM
GI50 (MCF7 breast): 0.383 µM
TGI (MCF7 breast): 15 µM
GI50 (MDA-MB-231 breast): 1.67 µM
TGI (MDA-MB-231 breast): 15.1 µM
GI50 (MDA-MB-435): 0.15 µM
TGI (MDA-MB-435): 0.511 µM
GI50 (MOLT-4 leukemia): 0.786 µM
TGI (MOLT-4 leukemia): 41.3 µM
GI50 (NCI-H226 lung): 4.86 µM
TGI (NCI-H226 lung): 23.1 µM
GI50 (NCI-H23 lung): 2.28 µM
TGI (NCI-H23 lung): 16.4 µM
GI50 (NCI-H460 lung): 0.395 µM
TGI (NCI-H460 lung): 7.28 µM
GI50 (NCI-H522 lung): 0.367 µM
TGI (NCI-H522 lung): 11.1 µM
GI50 (NCI/ADR-RES ovarian): 0.41 µM
TGI (NCI/ADR-RES ovarian): 8.94 µM
GI50 (OVCAR-3 ovarian): 0.372 µM
TGI (OVCAR-3 ovarian): 3.73 µM
GI50 (OVCAR-4 ovarian): 2.64 µM
TGI (OVCAR-4 ovarian): 17.9 µM
GI50 (OVCAR-5 ovarian): 3.69 µM
TGI (OVCAR-5 ovarian): 17.9 µM
GI50 (OVCAR-8 ovarian): 2.54 µM
TGI (OVCAR-8 ovarian): 22.4 µM
GI50 (PC-3 prostate): 1 µM
TGI (PC-3 prostate): 15.5 µM
GI50 (RPMI-8226 leukemia): 1.06 µM
TGI (RPMI-8226 leukemia): 22.7 µM
GI50 (RXF 393 renal): 0.683 µM
TGI (RXF 393 renal): 4.98 µM
GI50 (SF-268 CNS): 1.85 µM
TGI (SF-268 CNS): 23 µM
GI50 (SF-295 CNS): 0.425 µM
TGI (SF-295 CNS): 12.5 µM
GI50 (SF-539 CNS): 0.513 µM
TGI (SF-539 CNS): 3.43 µM
GI50 (SK-MEL-2 melanoma): 0.766 µM
TGI (SK-MEL-2 melanoma): 21.2 µM
GI50 (SK-MEL-28 melanoma): 5.72 µM
TGI (SK-MEL-28 melanoma): 21.9 µM
GI50 (SK-MEL-5 melanoma): 0.768 µM
TGI (SK-MEL-5 melanoma): 12.8 µM
GI50 (SK-OV-3 ovarian): 2.07 µM
TGI (SK-OV-3 ovarian): 15.6 µM
GI50 (SN12C renal): 1.09 µM
TGI (SN12C renal): 19.5 µM
GI50 (SNB-19 CNS): 0.847 µM
TGI (SNB-19 CNS): 18.2 µM
GI50 (SNB-75 CNS): 0.191 µM
TGI (SNB-75 CNS): 1.54 µM
GI50 (SR leukemia): 0.21 µM
TGI (SR leukemia): 28.5 µM
GI50 (SW-620 colon): 0.378 µM
TGI (SW-620 colon): 14 µM
GI50 (T-47D breast): 0.86 µM
TGI (T-47D breast): 17.4 µM
GI50 (TK-10 renal): 6.49 µM
TGI (TK-10 renal): 21.9 µM
GI50 (U251 CNS): 0.659 µM
TGI (U251 CNS): 17.6 µM
GI50 (UACC-257 melanoma): 8.36 µM
TGI (UACC-257 melanoma): 28.8 µM
GI50 (UACC-62 melanoma): 0.584 µM
TGI (UACC-62 melanoma): 13.7 µM
GI50 (UO-31 renal): 1.14 µM
TGI (UO-31 renal): 15.5 µM
